According to ChEMBL document CHEMBL1145212, “Fluorinated diaryl sulfides as serotonin transporter ligands: synthesis, structure-activity relationship study, and in vivo evaluation of fluorine-18-labeled compounds as PET imaging agents” (J Med Chem, 2005):

Target: Sodium-dependent serotonin transporter (Homo sapiens, UniProt P31645)
Assay: In vitro displacement of [3H]paroxetine from human serotonin transporter expressed in HEK293 cells
Type: cell-based

Chain of Sodium-dependent serotonin transporter (P31645 whole entry): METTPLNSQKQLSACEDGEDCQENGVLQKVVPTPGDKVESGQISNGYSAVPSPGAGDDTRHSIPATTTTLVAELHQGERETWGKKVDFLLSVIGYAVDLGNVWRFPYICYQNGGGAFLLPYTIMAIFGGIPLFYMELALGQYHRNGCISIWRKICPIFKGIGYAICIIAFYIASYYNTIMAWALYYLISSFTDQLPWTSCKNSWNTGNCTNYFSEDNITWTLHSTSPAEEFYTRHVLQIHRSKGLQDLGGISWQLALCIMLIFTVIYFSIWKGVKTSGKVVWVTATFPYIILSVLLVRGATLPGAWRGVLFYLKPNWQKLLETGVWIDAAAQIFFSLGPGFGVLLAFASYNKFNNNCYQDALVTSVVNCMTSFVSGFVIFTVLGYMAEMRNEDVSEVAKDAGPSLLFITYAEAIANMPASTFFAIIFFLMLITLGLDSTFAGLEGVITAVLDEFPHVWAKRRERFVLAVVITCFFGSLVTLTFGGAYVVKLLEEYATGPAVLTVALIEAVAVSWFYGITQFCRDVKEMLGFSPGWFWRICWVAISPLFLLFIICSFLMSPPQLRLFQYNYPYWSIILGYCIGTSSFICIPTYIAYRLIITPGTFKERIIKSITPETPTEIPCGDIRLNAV

Ki: 1.12 nM
Compound: CN(C)Cc1ccccc1Sc1ccc(C#N)cc1N [DASB]
